The source of these data is paper PMC6890495 (Chemical research in toxicology, 2019).

For test [1], the target named is T1, recombinant human ALKBH2 protein (Homo sapiens, UniProt Q6NS38).
T1 sequence (Q6NS38 1-261): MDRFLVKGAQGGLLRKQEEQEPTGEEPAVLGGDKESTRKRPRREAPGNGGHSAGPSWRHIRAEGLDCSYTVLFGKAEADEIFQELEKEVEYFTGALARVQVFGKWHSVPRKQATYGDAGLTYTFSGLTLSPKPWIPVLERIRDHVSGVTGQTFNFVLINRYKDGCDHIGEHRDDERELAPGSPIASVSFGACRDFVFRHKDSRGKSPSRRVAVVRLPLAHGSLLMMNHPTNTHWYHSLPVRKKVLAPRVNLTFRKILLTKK
Briefly: α-ketoglutarate competitor test: ALKBH2 repair with varying αKG and fixed Fe. The conditions noted are these: for change of repair efficiency with increasing αKG: Fe(II) 10 μM, rhein 50 μM, compound 7 2 μM. The format is biochemical.

For test [2], the target named is T1, recombinant human ALKBH2 protein. Put plainly: Fe. The test is classed as biochemical. To be noted: for change of repair efficiency with increasing Fe(II) ion: rhein 50 μM.

Consider `O=C(O)c1cc(O)c2c(c1)C(=O)c1cccc(O)c1C2=O` [rhein, Rhein, reference compound], for which the repair ratio in test [1] (50 μM rhein, 50 μM αKG, Fe(II) fixed at 10 μM) was found to be 30%. Besides, the “change of repair efficiency with increasing αKG” value in test [1] (αKG 50 to 800 μM) is given as “recovered in a concentration-dependent manner”. In addition, the repair efficiency entry in test [2] (50 μM rhein, Fe(II) 5 to 80 μM, αKG fixed at 93 μM) was “around 36%”. Further, the “change of repair efficiency with increasing Fe(II) ion” value (“change … with increasing Fe(II) ion” below) in test [2] (Fe(II) 5 to 80 μM, αKG 93 μM) was “no significant change”.
On to `O=C(O)c1cc(O)c(O)c(O)c1` [compound 2, gallic acid], for which the “change … with increasing Fe(II) ion” value in test [2] (Fe(II) 5 to 80 μM, αKG 93 μM) is “recovered in a concentration-dependent manner”.
As for `O=C(OC[C@H]1O[C@@H](OC(=O)c2cc(O)c(O)c(O)c2)[C@H](OC(=O)c2cc(O)c(O)c(O)c2)[C@@H](OC(=O)c2cc(O)c(O)c(O)c2)[C@@H]1OC(=O)c1cc(O)c(O)c(O)c1)c1cc(O)c(O)c(O)c1` [compound 5, pentagalloyl glucose], the “change … with increasing Fe(II) ion” value in test [2] (Fe(II) 5 to 80 μM, αKG 93 μM) is “recovered in a concentration-dependent manner”.
In the case of tannic acid [compound 7], the repair efficiency was ~ 25% in test [1] (2 μM compound, αKG 50 to 800 μM, Fe(II) kept at 10 μM) and “up to 60%” in test [2] (Fe(II) ion concentration increased up to 80 μM, αKG 93 μM, control ~95% repair). For the same compound, in test [1] (αKG 50 to 800 μM), the “change of repair efficiency with increasing αKG” value is “did not vary significantly”. Also, in test [2] (5 μM Fe(II) ion, αKG kept at 93 μM), the “reactivity (repair)” value is 5%. Also, the “change … with increasing Fe(II) ion” value in test [2] (Fe(II) 5 to 80 μM, αKG 93 μM) is “restored in a concentration-dependent manner”.
